Laboratory results taken from patent US9598440B2, “Inhibitors of IRAK4 activity” (MERCK SHARP & DOHME CORP., priority 2012, dated 2017).

Molecular target: IRAK4 (Homo sapiens (Human), UniProt Q9NWZ3)
Assay: Determination of IRAK4 kinase activity (IMAP fluorescence polarization, phosphorylation of fluorescent peptide substrate)
Type: biochemical
Settings: 0.5 nM GST tagged IRAK4, 100 nM peptide substrate RP7030, 100 μM ATP, 30 minutes at 25° C.
Method in brief: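 GST-tagged IRAK4 (0.5 nM) phosphorylated 100 nM fluorescent peptide substrate with 100 µM ATP in Tris-HCl pH 7.2, 1 mM MgCl2, 1 mM DTT, 0.01% Tween 20 for 30 min at 25 °C. Phosphorylation read by IMAP nanoparticle binding as fluorescence polarization increase.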

Sequence of IRAK4 (Q9NWZ3 whole entry): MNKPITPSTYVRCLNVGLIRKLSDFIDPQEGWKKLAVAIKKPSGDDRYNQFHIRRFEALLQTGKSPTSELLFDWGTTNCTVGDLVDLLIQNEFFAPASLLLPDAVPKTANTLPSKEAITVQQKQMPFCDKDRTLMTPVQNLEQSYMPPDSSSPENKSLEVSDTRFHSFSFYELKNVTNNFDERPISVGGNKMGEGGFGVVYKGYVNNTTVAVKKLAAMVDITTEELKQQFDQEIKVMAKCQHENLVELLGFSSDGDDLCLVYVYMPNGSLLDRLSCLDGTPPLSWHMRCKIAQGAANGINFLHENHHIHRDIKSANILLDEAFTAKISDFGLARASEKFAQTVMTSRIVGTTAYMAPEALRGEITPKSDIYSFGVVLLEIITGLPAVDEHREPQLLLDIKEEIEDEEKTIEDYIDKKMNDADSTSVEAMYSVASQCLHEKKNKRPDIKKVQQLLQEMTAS

Row | SMILES | IC50 [nM]
1 | Cc1nc(N2CCC(N)CC2)nc(N[C@@H]2C[C@H](CO)[C@@H](O)[C@H]2O)c1-c1nc2ccccc2s1 [Example 92, (1R,2S,3R,5R)-3-((2-(4-aminopiperidin-1-yl)-5-(benzo[d]thiazol-2-yl)-6-methylpyrimidin-4-yl)amino)-5-(hydroxymethyl)cyclopentane-1,2-diol] | 11400
2 | Cc1nc(NCC2CCNCC2)nc(N[C@@H]2C[C@H](CO)[C@@H](O)[C@H]2O)c1-c1nc2ccccc2s1 [Example 93, (1R,2S,3R,5R)-3-((5-(benzo[d]thiazol-2-yl)-6-methyl-2-((piperidin-4-ylmethyl)amino)pyrimidin-4-yl)amino)-5-(hydroxymethyl)cyclopentane-1,2-diol] | 13100
3 | COc1cccc(Nc2nc(C)c(-c3nc4ccccc4s3)c(N[C@@H]3C[C@H](CO)[C@@H](O)[C@H]3O)n2)c1 [Example 94, (1R,2S,3R,5R)-3-((5-(benzo[d]thiazol-2-yl)-2-((3-methoxyphenyl)amino)-6-methylpyrimidin-4-yl)amino)-5-(hydroxymethyl)cyclopentane-1,2-diol] | 870
4 | Cc1nc(N)nc(N[C@@H]2C[C@H](CO)[C@@H](O)[C@H]2O)c1-c1nc(Br)cs1 [Example 95, (1R,2S,3R,5R)-3-((2-amino-5-(4-bromothiazol-2-yl)-6-methylpyrimidin-4-yl)amino)-5-(hydroxymethyl)cyclopentane-1,2-diol] | 4650
5 | Cc1nc(Nc2ccccn2)nc(N[C@@H]2C[C@H](CO)[C@@H](O)[C@H]2O)c1-c1nc2ccccc2s1 [Example 97, (1R,2S,3R,5R)-3-((5-(benzo[d]thiazol-2-yl)-6-methyl-2-(pyridin-2-ylamino)pyrimidin-4-yl)amino)-5-(hydroxymethyl)cyclopentane-1,2-diol] | 11300
6 | Cc1nc(N2CCC(C)CC2)nc(N[C@@H]2C[C@H](CO)[C@@H](O)[C@H]2O)c1-c1nc2ccccc2s1 [Example 98, (1R,2S,3R,5R)-3-((5-(benzo[d]thiazol-2-yl)-6-methyl-2-(4-methylpiperidin-1-yl)pyrimidin-4-yl)amino)-5-(hydroxymethyl)cyclopentane-1,2-diol] | 948
7 | Cc1nc(Nc2cccnc2)nc(N[C@@H]2C[C@H](CO)[C@@H](O)[C@H]2O)c1-c1nc2ccccc2s1 [Example 99, (1R,2S,3R,5R)-3-((5-(benzo[d]thiazol-2-yl)-6-methyl-2-(pyridin-3-ylamino)pyrimidin-4-yl)amino)-5-(hydroxymethyl)cyclopentane-1,2-diol] | 292
8 | Cc1cc(Nc2nc(C)c(-c3nc4ccccc4s3)c(N[C@@H]3C[C@H](CO)[C@@H](O)[C@H]3O)n2)ccn1 [Example 100, (1R,2S,3R,5R)-3-((5-(benzo[d]thiazol-2-yl)-6-methyl-2-((2-methylpyridin-4-yl)amino)pyrimidin-4-yl)amino)-5-(hydroxymethyl)cyclopentane-1,2-diol] | 138
9 | Cc1nc(N)nc(N[C@@H]2C[C@H](CO)[C@@H](O)[C@H]2O)c1-c1nc2ccccc2o1 [Example 101, (1R,2S,3R,5R)-3-((2-amino-5-(benzo[d]oxazol-2-yl)-6-methylpyrimidin-4-yl)amino)-5-(hydroxymethyl)cyclopentane-1,2-diol] | 992
10 | Cc1nc(Nc2cccc(C(N)=O)c2)nc(N[C@@H]2C[C@H](CO)[C@@H](O)[C@H]2O)c1-c1nc2ccccc2s1 [Example 102, 3-((5-(benzo[d]thiazol-2-yl)-4-(((1R,2S,3R,4R)-2,3-dihydroxy-4-(hydroxymethyl)cyclopentyl)amino)-6-methylpyrimidin-2-yl)amino)benzamide] | 142
11 | Cc1nc(Nc2ccc(O)cc2)nc(N[C@@H]2C[C@H](CO)[C@@H](O)[C@H]2O)c1-c1nc2ccccc2s1 [Example 103, (1R,2S,3R,5R)-3-((5-(benzo[d]thiazol-2-yl)-2-((4-hydroxyphenyl)amino)-6-methylpyrimidin-4-yl)amino)-5-(hydroxymethyl)cyclopentane-1,2-diol] | 243
